According to patent publication US9234000B2, “Benzylamine derivatives as inhibitors of plasma kallikrein” (KalVista Pharmaceuticals Limited, priority 2011, dated 2016):
Converted amounts (≈) assume the structure as drawn.

Assays:
physchem = conditions: for solubility in PO4 buffer: pH 7; for solubility: pH 7, aqueous buffer, kinetic from dmso stock
Protocol: Determination of the Kinetic Solubility in Phosphate Buffer
After shaking for approximately 30 seconds the reduction in light transmission of these samples, at 650 nm, was measured (Molecular Devices Spectromax UV/visible spectrophotometer). A second measurement was taken at approximately 30 seconds later.

Human plasma kallikrein = Human plasma kallikrein (Homo sapiens (Human), UniProt P03952); test: Determination of the IC50 for plasma kallikrein; format: biochemical; conditions: fluorogenic substrate H-DPro-Phe-Arg-AFC, 37° C., read-out: IC50 (human PKal)
Sequence of Human plasma kallikrein (P03952 391-638): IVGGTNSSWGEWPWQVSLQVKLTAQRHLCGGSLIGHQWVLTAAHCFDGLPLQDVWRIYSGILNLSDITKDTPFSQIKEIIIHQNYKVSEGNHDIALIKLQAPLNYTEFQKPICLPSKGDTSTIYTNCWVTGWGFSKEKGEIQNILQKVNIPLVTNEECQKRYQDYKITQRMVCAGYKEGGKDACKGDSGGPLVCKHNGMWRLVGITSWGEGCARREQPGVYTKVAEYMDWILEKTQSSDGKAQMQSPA
Sequence of Human plasma kallikrein (P03952 20-390 partner): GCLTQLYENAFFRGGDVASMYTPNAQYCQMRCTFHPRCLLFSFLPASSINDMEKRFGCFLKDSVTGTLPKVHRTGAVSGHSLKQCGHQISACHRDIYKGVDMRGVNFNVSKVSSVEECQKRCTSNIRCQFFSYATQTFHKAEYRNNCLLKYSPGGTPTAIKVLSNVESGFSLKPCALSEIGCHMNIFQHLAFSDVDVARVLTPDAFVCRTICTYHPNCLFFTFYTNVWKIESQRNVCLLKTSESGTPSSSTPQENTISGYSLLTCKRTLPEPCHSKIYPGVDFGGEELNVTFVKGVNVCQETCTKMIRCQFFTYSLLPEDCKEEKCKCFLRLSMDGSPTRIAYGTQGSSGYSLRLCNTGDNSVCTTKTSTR
Procedure, shortened: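 Residual activity (initial rate, absorbance at 410 nm) gave the IC50. Reactions at 37° C combined human plasma kallikrein, substrate H-DPro-Phe-Arg-AFC and a range of inhibitor concentrations.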

Human KLK1 = Human KLK1 (Homo sapiens (Human), UniProt P06870); test: Determination of the IC50 for KLK1; format: biochemical; conditions: Human KLK1, 37° C., substrate H-DVal-Leu-Arg-AFC; Table 12
Sequence of Human KLK1 (P06870 25-262): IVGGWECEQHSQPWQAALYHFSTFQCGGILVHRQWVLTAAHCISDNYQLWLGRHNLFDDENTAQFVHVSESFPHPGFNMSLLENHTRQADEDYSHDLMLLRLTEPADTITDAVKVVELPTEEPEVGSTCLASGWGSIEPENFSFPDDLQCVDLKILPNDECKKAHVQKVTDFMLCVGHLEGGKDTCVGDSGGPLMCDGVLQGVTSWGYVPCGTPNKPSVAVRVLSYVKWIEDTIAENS
Procedure, shortened: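 Human KLK1 incubated at 37 °C with fluorogenic substrate H-DVal-Leu-Arg-AFC and a range of test compound concentrations. Residual activity was taken as initial reaction rate from absorbance change at 410 nm, and the IC50 derived from it.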

SMILES | solubility in PO4 buffer (physchem) [µM] | IC50 (Human plasma kallikrein) [nM] | IC50 (Human KLK1) [µM] | solubility (physchem) [µM]
CN(C(=O)[C@@H](CC1CCCCC1)NCC(=O)O)[C@@H](Cc1ccccc1)C(=O)NCc1ccc(CN)cc1 [Example 30, ((R)-1-{[(S)-1-(4-Aminomethyl-benzylcarbamoyl)-2-phenyl-ethyl]-methyl-carbamoyl}-2-cyclohexyl-ethylamino)-acetic acid] | > 235 | 580 | > 10 | 
CN(CC(=O)O)[C@H](CC1CCCCC1)C(=O)N[C@@H](Cc1ccccc1)C(=O)NCc1ccc(CN)c(F)c1 [Example 42, ({(R)-1-[(S)-1-(4-Aminomethyl-3-fluoro-benzylcarbamoyl)-2-phenyl-ethylcarbamoyl]-2-cyclohexyl-ethyl}-methyl-amino)-acetic acid] | > 235 | 530 | > 10 | 
CCOc1ccc(C[C@@H](NC(=O)CC)C(=O)N[C@@H](Cc2ccccc2)C(=O)NCc2ccc(CN)cc2)cc1 [Example 1, (S)—N-(4-Aminomethyl-benzyl)-2-[(R)-3-(4-ethoxy-phenyl)-2-propionylamino-propionylamino]-3-phenyl-propionamide] | > 235 | 89 | > 1 | 
NCc1ccc(CNC(=O)[C@H](Cc2ccccc2)NC(=O)[C@H](N)C(C2CCCCC2)C2CCCCC2)cc1 [Example 52, (R)-2-Amino-N-[(S)-1-(4-aminomethyl-benzylcarbamoyl)-2-phenyl-ethyl]-3,3-dicyclohexyl-propionamide] | > 235 | 860 | 9.5 | 
CCOc1ccc(C[C@@H](NCC(=O)O)C(=O)N[C@@H](Cc2ccccc2)C(=O)NCc2ccc(CN)cc2)cc1 [Example 17, [(R)-1-[(S)-1-(4-Aminomethyl-benzylcarbamoyl)-2-phenyl-ethylcarbamoyl]-2-(4-ethoxy-phenyl)-ethylamino]-acetic acid] | > 235 | 5800 | > 10 | 
CN(CC(=O)O)[C@H](CC1CCCCC1)C(=O)N[C@@H](Cc1ccccc1)C(=O)NCc1ccc(CN)cc1 [Example 29, ({(R)-1-[(S)-1-(4-Aminomethyl-benzylcarbamoyl)-2-phenyl-ethylcarbamoyl]-2-cyclohexyl-ethyl}-methyl-amino)-acetic acid] | > 235 | 300 | > 10 | 
CN[C@H](CC1CCCCC1)C(=O)N[C@@H](Cc1ccccc1)C(=O)NCc1ccc(CN)c(F)c1 [Example 40, (R)-N-[(S)-1-(4-Aminomethyl-3-fluoro-benzylcarbamoyl)-2-phenyl-ethyl]-3-cyclohexyl-2-methylamino-propionamide] | > 235 | 1800 | > 10 | 
CCC(=O)N[C@H](CC1CCCCC1)C(=O)N[C@@H](Cc1ccc(Cl)c(Cl)c1)C(=O)NCc1ccc(CN)cc1 [Example 21, (R)-N-[(S)-1-(4-Aminomethyl-benzylcarbamoyl)-2-(3,4-dichloro-phenyl)-ethyl]-3-cyclohexyl-2-propionylamino-propionamide] |  | 5100 | 10 | 12 (≈ 6.74 µg/mL)
NCc1ccc(CNC(=O)[C@H](Cc2ccc(Cl)c(Cl)c2)NC(=O)[C@H](N)Cc2ccc(C(F)(F)F)cc2)cc1 [Example 18, (R)-2-Amino-N-[(S)-1-(4-aminomethyl-benzylcarbamoyl)-2-(3,4-dichloro-phenyl)-ethyl]-3-(4-trifluoromethyl-phenyl)-propionamide] | > 235 | 8800 | 1.6 | 
CN(CC(=O)O)[C@H](CC1CCCCC1)C(=O)N[C@@H](Cc1ccc(Cl)c(Cl)c1)C(=O)NCc1ccc(CN)c(F)c1 [Example 43, ({(R)-1-[(S)-1-(4-Aminomethyl-3-fluoro-benzylcarbamoyl)-2-(3,4-dichloro-phenyl)-ethylcarbamoyl]-2-cyclohexyl-ethyl}-methyl-amino)-acetic acid] | > 235 | 1300 | > 10 | 
CCOc1ccc(C[C@@H](N)C(=O)N[C@@H](Cc2ccc(Cl)c(Cl)c2)C(=O)NCc2ccc(CN)cc2)cc1 [Example 14, (R)-2-Amino-N-[(S)-1-(4-aminomethyl-benzylcarbamoyl)-2-(3,4-dichloro-phenyl)-ethyl]-3-(4-ethoxy-phenyl)-propionamide] | > 235 | 400 | 3.7 | 
CCCN[C@H](Cc1ccc(OCC)cc1)C(=O)N(C)[C@@H](Cc1ccccc1)C(=O)NCc1ccc(CN)cc1 [Example 35, (R)-N-[(S)-1-(4-Aminomethyl-benzylcarbamoyl)-2-phenyl-ethyl]-3-(4-ethoxy-phenyl)-N-methyl-2-propylamino-propionamide] | > 235 | 2000 | > 10 | 
CCOc1ccc(C[C@@H](NC(C)=O)C(=O)N(C)[C@@H](Cc2ccccc2)C(=O)NCc2ccc(CN)cc2)cc1 [Example 39, (R)-2-Acetylamino-N-[(S)-1-(4-aminomethyl-benzylcarbamoyl)-2-phenyl-ethyl]-3-(4-ethoxy-phenyl)-N-methyl-propionamide] | > 235 | 310 | > 10 | 
CCOc1ccc(C[C@@H](NC(=O)CC)C(=O)N[C@H](C(=O)NCc2ccc(CN)cc2)[C@@H](O)c2ccccc2)cc1 [Example 63, (2S,3S)-N-(4-Aminomethyl-benzyl)-2-[(R)-3-(4-ethoxy-phenyl)-2-propionylamino-propionylamino]-3-hydroxy-3-phenyl-propionamide] | > 235 | 52 |  | 
CS(=O)(=O)N[C@H](CC1CCCCC1)C(=O)N[C@@H](Cc1ccccc1)C(=O)NCc1ccc(CN)cc1 [Example 11, (R)-N-[(S)-1-(4-Aminomethyl-benzylcarbamoyl)-2-phenyl-ethyl]-3-cyclohexyl-2-methanesulfonylamino-propionamide] | > 235 | 1700 |  | 
CCOc1ccc(C[C@@H](NC(=O)c2ccc(-c3ccccc3)cc2)C(=O)N[C@@H](Cc2ccccc2)C(=O)NCc2ccc(CN)cc2)cc1 [Example 57, Biphenyl-4-carboxylic acid [(R)-1-[(S)-1-(4-aminomethyl-benzylcarbamoyl)-2-phenyl-ethylcarbamoyl]-2-(4-ethoxy-phenyl)-ethyl]-amide] |  | 10000 |  | 36 (≈ 23.6 µg/mL)

Continued by falling IC50 (Human plasma kallikrein), values first:

solubility in PO4 buffer (physchem) [µM] | IC50 (Human plasma kallikrein) [nM] | IC50 (Human KLK1) [µM] | solubility (physchem) [µM] | SMILES
> 235 | 3400 |  |  | CCOc1ccc(C[C@@H](NC(=O)CC)C(=O)N(CC)[C@H](Cc2ccccc2)C(=O)NCc2ccc(CN)cc2)cc1 [Example 64, (R)-N-(4-Aminomethyl-benzyl)-2-{[(R)-3-(4-ethoxy-phenyl)-2-propionylamino-propionyl]-ethyl-amino}-3-phenyl-propionamide]
> 235 | 1300 | 2.5 |  | CN[C@H](CC1CCCCC1)C(=O)N[C@@H](Cc1ccc(Cl)c(Cl)c1)C(=O)NCc1ccc(CN)c(F)c1 [Example 41, (R)-N-[(S)-1-(4-Aminomethyl-3-fluoro-benzylcarbamoyl)-2-(3,4-dichloro-phenyl)-ethyl]-3-cyclohexyl-2-methylamino-propionamide]
> 235 | 1000 | > 10 |  | NCc1ccc(CNC(=O)[C@H](Cc2ccccc2)NC(=O)[C@@H](CC2CCCCC2)NCCO)cc1 [Example 51, (R)-N-[(S)-1-(4-Aminomethyl-benzylcarbamoyl)-2-phenyl-ethyl]-3-cyclohexyl-2-(2-hydroxy-ethylamino)-propionamide]
> 235 | 910 | > 10 |  | CCCN[C@H](CC1CCCCC1)C(=O)N[C@@H](Cc1ccccc1)C(=O)NCc1ccc(CN)cc1 [Example 37, (R)-N-[(S)-1-(4-Aminomethyl-benzylcarbamoyl)-2-phenyl-ethyl]-3-cyclohexyl-2-propylamino-propionamide]
> 235 | 450 | > 10 |  | CCOc1ccc(C[C@@H](NC(=O)CC)C(=O)N[C@@H](Cc2ccccc2)C(=O)N(C)Cc2ccc(CN)cc2)cc1 [Example 24, (S)-N-(4-Aminomethyl-benzyl)-2-[(R)-3-(4-ethoxy-phenyl)-2-propionylamino-propionylamino]-N-methyl-3-phenyl-propionamide]
> 235 | 220 |  |  | CCOc1ccc(C[C@@H](N)C(=O)N[C@H](C(=O)NCc2ccc(CN)cc2)[C@@H](O)c2ccccc2)cc1 [Example 61, (R)-2-Amino-N-[(1S,2S)-1-(4-aminomethyl-benzylcarbamoyl)-2-hydroxy-2-phenyl-ethyl]-3-(4-ethoxy-phenyl)-propionamide]
> 235 | 200 | > 10 |  | CCOc1ccc(C[C@@H](NC(=O)CC)C(=O)N(C)[C@@H](Cc2ccccc2)C(=O)NCc2ccc(CN)c(F)c2)cc1 [Example 32, (S)-N-(4-Aminomethyl-3-fluoro-benzyl)-2-{[(R)-3-(4-ethoxy-phenyl)-2-propionylamino-propionyl]-methyl-amino}-3-phenyl-propionamide]
> 235 | 180 | > 10 |  | CCOc1ccc(C[C@@H](NC(=O)C(C)C)C(=O)N(C)[C@@H](Cc2ccccc2)C(=O)NCc2ccc(CN)cc2)cc1 [Example 44, N-[(R)-1-{[(S)-1-(4-Aminomethyl-benzylcarbamoyl)-2-phenyl-ethyl]-methyl-carbamoyl}-2-(4-ethoxy-phenyl)-ethyl]-isobutyramide]
